Reference: US10815237B2, “Antimicrobials and methods of making and using same” (BIOVERSYS AG, priority 2016, dated 2020)
In brackets after ≈: the same amount, converted by molar mass. Where two headings read alike, the source gives them in different places.

Experiments:
P. aeruginosa (n=20) = assay: CLSI broth microdilution MIC, P. aeruginosa; type: cell-based; conditions: for MIC: Pseudomonas aeruginosa
Experimental: (§1) Four compounds, including Compound No. 8 of the present application (RX-04D) were tested against (i) multiresistant Enterobacteriaceae and Acinetobacter with carbapenemases; (ii) Enterobacteriaceae with MCR-1; and (iii) P. aeruginosa with altered efflux (see Tables 4 and 5). In this case, MCR-1 is relevant because its activity reduces the negative charge of lipopolysaccharides, potentially affecting binding of poly-basic molecules such as the compounds tested herein, as well as polymyxins.
(§2) MICs of the four tested compounds and comparators (amikacin, cefepime, colistin, meropenem and tigecyline) were determined by CLSI broth microdilution using pre-prepared plates (Trek Diagnostic Systems) (CLSI Approved Standard M7-A10). Carbapenemase and mcr-1 genes were detected by PCR or sequencing. Efflux levels in P. aeruginosa isolates were inferred by interpretive reading of antibiogram data.

[1] = tested on: Enterobacteriaceae (n=68); assay: CLSI broth microdilution MIC, Enterobacteriaceae panel; type: cell-based; conditions: for peak of unimodal MIC distribution: 68 Enterobacteriaceae
Experimental: as §1, §2

[2] = tested on: A. baumannii isolates (n=10); assay: CLSI broth microdilution MIC, A. baumannii; type: cell-based; conditions: for relative activity among analogues: 10 A. baumannii; for MIC: Acinetobacter baumannii, A. baumannii
Experimental: as §1, §2

CPE (n=36) = assay: CLSI broth microdilution MIC, carbapenemase producers (CPE); type: cell-based, Enterobacteriaceae; conditions: 35/36 (97%) for RX-04A
Experimental: as §1, §2

[3] = tested on: Enterobacteriaceae with MCR-1 (MCR-1 isolates, n=14); assay: CLSI broth microdilution MIC, MCR-1 isolates; type: cell-based; conditions: all MCR-1 isolates (n=14)
Experimental: as §1, §2

[4] = tested on: E. coli DH10B mcr-1 transformant; assay: CLSI broth microdilution MIC, E. coli DH10B mcr-1 transformant; type: cell-based; conditions: Escherichia coli
Experimental: as §1, §2

E. coli DH10B recipient = assay: CLSI broth microdilution MIC, E. coli DH10B recipient; type: cell-based; conditions: Escherichia coli, DH10BRECIPIENT, read-out: MIC
Experimental: as §1, §2

[5] = tested on: Staphylococcus aureus (S. aureus) 11540 strain; assay: standard microdilution MIC, S. aureus; type: cell-based; conditions: Staphylococcus aureus
Experimental: (§3) The in vitro activity of the compounds of the present disclosure can be determined. Antimicrobial testing is typically performed to determine the minimum inhibitory concentration (MIC). Minimum inhibitory concentrations (MICs) are determined by the microdilution method in a final volume of 100 μl according to protocols outlined by The Clinical and Laboratory Standards Institute (CLSI). Performance standards for reference strains are assessed within the same experimental design to maintain quality control. See, for example, Clinical Laboratory Standards Institute: Methods for dilution antimicrobial susceptibility tests for bacteria that grow aerobically M7-A8. Approved Standard-Eighth Edition. Wayne, Pa.: CLSI; December 2008; and Clinical Laboratory Standards Institute: Performance Standards for Antimicrobial Susceptibility Testing M100-S20; Approved Standard-Twentieth Edition. Wayne, Pa.: CLSI; June 2010.
(§4) The compounds of the present disclosure were tested for antimicrobial activity. The Compounds 1-23 were run against Eschericia coli (E. coli) strain ATCC25922 and against Staphylococcus aureus (S. aureus) 11540 strain using a standard microdilution assay to determine minimum inhibitory concentrations (MICs). […] It will be recognized by one skilled in the art that the compounds can be assessed against other bacterial organisms and that the presentation of data for activity against Eschericia coli and Staphylococcus aureus are illustrative and in no way is intended to limit the scope of the present disclosure. The compounds of the present disclosure can be assayed against a range of other microorganisms depending upon the performance activity desired to be gathered. Furthermore, the “+” and “−” representation and the selection of a cutoff value of 16 micrograms/mL is also illustrative and in no way is intended to limit the scope of the present disclosure.

[6] = tested on: Eschericia coli (E. coli) strain ATCC25922; assay: standard microdilution MIC, E. coli; type: cell-based, Escherichia coli; conditions: Escherichia coli
Experimental: as §3, §4

[7] = tested on: Chinese hamster ovary (CHO) cells; assay: cytotoxicity against CHO cell line (Cell Titer Blue); type: cell-based; conditions: Cricetulus griseus, 24 h, CHO-K1 cells, 24 hours incubation, percent cell kill
Experimental: The compounds of the present disclosure were tested for cytotoxicity against Chinese hamster ovary (CHO) cells.
The assay was performed by seeding CHO—K1 in F12K medium containing 13.33% Fetal Bovine Serum […]. 37.5 μl of cell suspension at a concentration of 9,500 cells/well was plated into each column of a 384-well black clear bottom assay plate with the exception of a negative (no cell) control column, and allowed to adhere for 2 hours. The culture media was then removed from the 175 cm^2 flask(s) and the cell monolayer washed with 10 mL of Phosphate Buffered Saline PBS. 3 mL of Cellstripper™ was then added and the flask was incubated for approximately 5 min at 37° C. The cells were dissociated by agitation and 7 mL of F 12K medium containing 10% FBS was added to the flask. A homogeneous cell suspension was obtained by trituration of the flask. The cells were counted with a hemocytometer by diluting an aliquot of the cell suspension in PBS with 0.4% trypan blue. Typically, a ratio of 100 μl cell suspension to 1800 μl PBS to 100 μl trypan blue was used.
The volume of cell suspension containing the number of cells needed to seed the plate(s) (15.2 mL containing 3.8×10^6 cells) was calculated and transferred to a 50 mL centrifuge tube with the appropriate volume of media. 37.5 μl of cells were added to each well of the 384 well plate except for the negative (no cell) control column. A cytotoxicity 100-fold dilution plate was then prepared by manually pipetting 18 μl of 100% DMSO into two columns of an empty low volume dilution plate. 2 μl of a 50 mM solution of compounds 1-23 from the translation plate were manually pipetted into the corresponding columns of the 100-fold dilution plate. 10 μl of 100% DMSO was manually pipetted into all remaining columns of the 100-fold plate.
A 4-fold cytotoxicity plate was prepared beforehand by manually pipetting 48 μl of F12K media (without DMSO and without FBS) into each well of a matrix 384 well plate. The test samples in the 100-fold dilution plate were mixed and diluted. Ten 2-fold dilutions were performed for each compound in duplicate. The 384 cannula array then transferred 2 μl to the 48 μl of media in the cytotoxicity 4-fold dilution plate. The array was then mixed and 12.5 μl of samples from the cytotoxicity 4-fold dilution plate were transferred to the 37.5 μl of cells and media. The final top concentration of samples at this point in the procedure was 50 μM with 10 subsequent 1:2 dilutions down to […]. The final DMSO concentration were 1% and the final concentration of FBS was 10%.
Cycloheximide was run as a control. Specifically, Cycloheximide was diluted to 0.1 mM from 100 mM stock […] and was added to the cytotoxicity 100-fold plate. Upon addition to the cell plate, a range of 1 μM to 1 nM of cycloheximide was run.
A column separate from the one (referred to above) that served as the negative control was used for cell control wells to which only media was added.
The plates were then incubated for 24 hours at 37° C. and 5% CO2. […] The two columns used earlier to prepare the 100-fold dilution plate by pipetting 18 μl of 100% DMSO contained the samples tested at 200 μM. After the 24 hour incubation period, the 4 μl of Cell Titer blue was added to each well using a Multichannel Matrix pipettor. The plates were returned to the incubator and incubated for an additional 5 hours. Fluorescence (530 nm excitation wavelength/590 nm emission wavelength) was measured on a Wallac Victor microplate reader.
Cell viability was assessed fluorometrically after a 5 hour incubation with resazurin (Cell Titer Blue™), which is reduced by living cells to the fluorescent resorufin.
The average fluorescence for the negative control was determined to obtain the average blank fluorescence. The average blank fluorescence was subtracted from the fluorescence values obtained for all the test agents. The resulting values are the corrected fluorescence. […]

| Compound | change of MIC with elevated efflux (P. aeruginosa (n=20); P. aeruginosa isolates with elevated efflux) | MIC (P. aeruginosa (n=20); 19/20 (95%) P. aeruginosa isolates, read-out: MICs) | MIC (P. aeruginosa (n=20); P. aeruginosa, summary, read-out: MICs mostly) | MIC ([1]; 67/68 (>98%) of Enterobacteriaceae, read-out: MICs) | peak of unimodal MIC distribution [1] | MIC ([1]; Enterobacteriaceae, summary, read-out: MICs mostly) | relative activity among analogues [2] | MIC ([2]; 7/10 values, read-out: MICs) | MIC ([2]; summary, read-out: MICs mostly) | MIC relative to MIC for E. coli ATCC 25922 (CPE (n=36)) | MIC relative to MIC for E. coli ATCC 25922 [3] | MIC [4] | MIC (E. coli DH10B recipient) | share of MICs ≥16 mg/L (P. aeruginosa (n=20); P. aeruginosa isolates, stated jointly for analogues C and D) | MIC [5] | MIC [6] | IC50 [7] |
| --- | --- | --- | --- | --- | --- | --- | --- | --- | --- | --- | --- | --- | --- | --- | --- | --- | --- |
| C[C@H](N)CCCc1cc(OC(F)(F)F)c(F)c(-c2cc3cn(-c4ccc([C@@H]5CCC[C@@H](CCNC(=N)N)N5)cc4)c(=O)nc3[nH]2)c1 [RX-04A] | not raised | 1 to 4 µg/mL (≈ 1.56 to 6.22 µM) | 1 to 4 µg/mL (≈ 1.56 to 6.22 µM) | 0.25 to 2 µg/mL (≈ 0.389 to 3.11 µM) | 1 µg/mL | 1 to 2 µg/mL (≈ 1.56 to 3.11 µM) | lowest MICs | 1 to 2 µg/mL (≈ 1.56 to 3.11 µM) | 1 to 2 µg/mL (≈ 1.56 to 3.11 µM) | ≤ 4 fold | ≤ 2 fold | 0.25 µg/mL (≈ 0.389 µM) | 0.25 µg/mL (≈ 0.389 µM) |  |  |  |  |
| C[C@H](N)CCCc1cc(Cl)c(F)c(-c2cc3cn(-c4ccc([C@@H]5CCC[C@@H](CCNC(=N)CN)N5)cc4)c(=O)nc3[nH]2)c1 [Compound 8] |  |  |  |  | 2 µg/mL |  | least active analogue |  |  |  |  | 1 µg/mL (≈ 1.65 µM) | 1 µg/mL (≈ 1.65 µM) | 48% | ≤ 16 µg/mL | ≤ 16 µg/mL | 95.2 µM |
